In one experiment the test system is C. coli ATCC33559. Nature of the experiment: Copper sulfate sensitivity dose–response assay in vitro (MIC/MBC). It is filed as cell-based. Conditions: Campylobacter coli; for MIC: ATCC33559, read-out: MIC, C. coli (Table S4); for MBC: ATCC33559, 0.5 mM CuSO4, read-out: MBC, C. coli (Table S5). On the procedure:
(§1) Campylobacter jejuni 81–176 was the primary model strain used for the selection of the potential Tat-dependent inhibitors by high-throughput screening. C. jejuni 81–176 is resistant to 0.5 and 1 mM CuSO4 (Supplementary Figure S1). C. jejuni 81–176 tatC knockout mutant (C. jejuni ΔtatC) was used to confirm the Tat-dependent inhibitory effect of the selected SM. C. jejuni ΔtatC is susceptible to 0.5 mM and higher of CuSO4 ([Rajashekara et al., 2009]). The specificity of the Tat-dependent inhibitors was also tested on 11 additional Campylobacter strains (C. coli ATCC33559 and 10 other C. jejuni strains isolated from chickens) and 7 commensal/beneficial bacteria (Supplementary Table S1). The […] (Au-13, Au-20, Au-38, Au-39, Au-47, Au-50, Au-24, Au-32, Au-44, and Au-45) were selected based on their single nucleotide polymorphism (SNP)-type and percent of prevalence in chickens ([Merchant-Patel et al., 2008]; [Kumar et al., 2016]). Additional details about the bacterial strains are shown in Supplementary Table S1.
(§2) In total, 19 SMs were two-fold serially diluted to obtain a final SM concentration ranging from 6.25 to 0.012 μg/mL. C. jejuni 81–176 was then treated with a determined concentration of SM, as described in the copper sensitivity assay. […] The lowest bactericidal SM concentration was considered the MBC (no increase in OD600 over time and no viable cells were recovered on agar plate after challenge) (N = 3 replicates per SM). […] However, these SMs were two-fold serially diluted to obtain a final SM concentration ranging from 5 μg to 0.0625 μg for testing (N = two independent experiments with four technical replicate for each SM).

A further experiment concerns C. jejuni Au-38. Described as above. The class given is cell-based. The settings on record: Campylobacter jejuni; for MIC: AU38, read-out: MIC, Au-38 (Table S4); for MBC: AU38, 0.5 mM CuSO4, read-out: MBC, Au-38 (Table S5). How it is done: as §1, §2
The next experiment has as its system C. jejuni Au-20. Described as above. The class given is cell-based. The settings on record: Campylobacter jejuni; for MIC: AU20, read-out: MIC, Au-20 (Table S4); for MBC: AU20, 0.5 mM CuSO4, read-out: MBC, Au-20 (Table S5). On the procedure: as §1, §2
In another experiment the test system is C. jejuni Au-45. Described as above. The class given is cell-based. Conditions: Campylobacter jejuni; for MIC: AU45, read-out: MIC, Au-45 (Table S4); for MBC: AU45, 0.5 mM CuSO4, read-out: MBC, Au-45 (Table S5). On the procedure:
as §1, §2

The next experiment relates to C. jejuni Au-50. Described as above. It is filed as cell-based. The settings on record: Campylobacter jejuni; for MIC: AU50, read-out: MIC, Au-50 (Table S4); for MBC: AU50, 0.5 mM CuSO4, read-out: MBC, Au-50 (Table S5). How it is done: as §1, §2
The subject of another experiment is C. jejuni Au-32. The description is as above. The class given is cell-based. The settings on record: Campylobacter jejuni; for MIC: AU32, read-out: MIC, Au-32 (Table S4); for MBC: AU32, 0.5 mM CuSO4, read-out: MBC, Au-32 (Table S5). How it is done: as §1, §2
The test system of another experiment is C. jejuni Au-13. The experiment is described as above. Conditions: Campylobacter jejuni; for MIC: AU13, read-out: MIC, Au-13 (Table S4); for MBC: AU13, 0.5 mM CuSO4, read-out: MBC, Au-13 (Table S5). The class given is cell-based. How it is done: as §1, §2
The test system of the next experiment is C. jejuni Au-39. The experiment is described as above. It is filed as cell-based. The settings on record: Campylobacter jejuni; for MIC: AU39, read-out: MIC, Au-39 (Table S4); for MBC: AU39, 0.5 mM CuSO4, read-out: MBC, Au-39 (Table S5). How it is done: as §1, §2
Another experiment has as its system C. jejuni Au-44. The experiment is described as above. The class given is cell-based. The settings on record: Campylobacter jejuni; for MIC: AU44, read-out: MIC, Au-44 (Table S4); for MBC: AU44, 0.5 mM CuSO4, read-out: MBC, Au-44 (Table S5). How it is done:
as §1, §2

For another experiment, the system named is C. jejuni Au-47. The description is as above. The class given is cell-based. The settings on record: Campylobacter jejuni; for MIC: AU47, read-out: MIC, Au-47 (Table S4); for MBC: AU47, 0.5 mM CuSO4, read-out: MBC, Au-47 (Table S5). On the procedure:
as §1, §2

Experiment [1] deals with C. jejuni (mixture of five strains) in chicken ceca. Briefly: C. jejuni persistence in ceca of 3-week-old colonized chickens. The class given is in vivo. Conditions: 3-week-old chickens, oral twice a day for 5 days, approximately 0.127 mg of SM per kg body weight. How it is done: The antimicrobial efficacy of T1, T7, and T8 was also tested on 3-week-old chickens to assess the clearance of C. jejuni load in chicken right after inoculation. Overall, 3-week-old Campylobacter-free chickens were inoculated orally with a mixture of five C. jejuni strains (10^5 CFU/chicken, Supplementary Table S3). Rectal swabs were collected 1 DPI to confirm the intestinal colonization of the birds by C. jejuni (CFU/g of feces). From 2 DPI, chickens were treated orally twice a day for 5 days (from 2 DPI to 7 DPI) with one of the SMs (T1, T7, or T8; approximately 0.127 mg of SM per kg body weight; n = 5–6 chicken per group). Details of the treatment groups and the inoculum are shown in Supplementary Table S3.
For both experiments, C. jejuni colonized-chickens treated with 0.0001% DMSO and colonized chickens without additional carrier treatment (non-treated) were used as controls (n = 3–6 chicken per group). Details of the treatment groups and the inoculum are shown in Supplementary Table S3. Both 3 and 5-week-old chickens were euthanized at 7 DPI using carbon dioxide gas and ceca (cecal content and the pouch) and were aseptically collected. One of the ceca pairs was immediately stored at −80°C for microbiota studies. […]

In brackets after ≈: the same amount, converted by molar mass.

As to `CCCNC(=S)Nc1cc(OC)cc(OC)c1` [T1], the MIC (commonly the least concentration at which growth counts as inhibited) with C. coli ATCC33559 was found to be 0.31 µg/mL (≈ 1.22 µM); in the experiment on C. jejuni Au-38 it was 0.31 µg/mL (≈ 1.22 µM); with C. jejuni Au-20, 0.31 µg/mL (≈ 1.22 µM); with C. jejuni Au-45, 0.31 µg/mL (≈ 1.22 µM); with C. jejuni Au-50 it was 0.31 µg/mL (≈ 1.22 µM); with C. jejuni Au-32, 0.62 µg/mL (≈ 2.44 µM). The MIC with C. jejuni Au-13 came out at 1.25 µg/mL (≈ 4.91 µM); in the experiment on C. jejuni Au-39 it was 0.31 µg/mL (≈ 1.22 µM); in the experiment on C. jejuni Au-44, 0.31 µg/mL (≈ 1.22 µM); in the experiment with C. jejuni Au-47, 0.16 µg/mL (≈ 0.629 µM). The MBC (commonly the lowest tested concentration that kills the bacteria rather than only halting them) with C. coli ATCC33559 was determined as 0.62 µg/mL (≈ 2.44 µM); in the experiment on C. jejuni Au-38 it was 0.62 µg/mL (≈ 2.44 µM); with C. jejuni Au-20 it was 0.62 µg/mL (≈ 2.44 µM); in the experiment on C. jejuni Au-45, 0.62 µg/mL (≈ 2.44 µM); in the experiment on C. jejuni Au-50, 0.62 µg/mL (≈ 2.44 µM); in the experiment on C. jejuni Au-32 it was 1.24 µg/mL (≈ 4.88 µM). For the same compound, the MBC in the experiment on C. jejuni Au-13 came to 2.5 µg/mL (≈ 9.83 µM); in the experiment on C. jejuni Au-39, 0.62 µg/mL (≈ 2.44 µM); in the experiment on C. jejuni Au-44, 0.62 µg/mL (≈ 2.44 µM); in the experiment with C. jejuni Au-47, 0.32 µg/mL (≈ 1.26 µM).
With `CC(C)(C)NC(=S)NNc1c(Cl)cncc1Cl` [T2], the minimum inhibitory concentration (MIC) is 0.62 µg/mL (≈ 2.11 µM) in the experiment with C. coli ATCC33559; 0.62 µg/mL (≈ 2.11 µM) in the experiment with C. jejuni Au-38; 0.62 µg/mL (≈ 2.11 µM) in the experiment on C. jejuni Au-20; 0.62 µg/mL (≈ 2.11 µM) in the experiment with C. jejuni Au-45; 0.31 µg/mL (≈ 1.06 µM) with C. jejuni Au-50; 0.62 µg/mL (≈ 2.11 µM) in the experiment with C. jejuni Au-32. The minimal inhibitory concentration (MIC) in the experiment on C. jejuni Au-13, in the experiment on C. jejuni Au-39, in the experiment on C. jejuni Au-44 and with C. jejuni Au-47 was 0.31 µg/mL (≈ 1.06 µM) throughout. For the same compound, the minimal bactericidal concentration (MBC) in the experiment with C. coli ATCC33559 stood at 1.24 µg/mL (≈ 4.23 µM); with C. jejuni Au-38, 1.24 µg/mL (≈ 4.23 µM); in the experiment with C. jejuni Au-20, 1.24 µg/mL (≈ 4.23 µM); with C. jejuni Au-45, 1.24 µg/mL (≈ 4.23 µM); in the experiment with C. jejuni Au-50, 0.62 µg/mL (≈ 2.11 µM); in the experiment with C. jejuni Au-32 it was 1.24 µg/mL (≈ 4.23 µM). The MBC in the experiment on C. jejuni Au-13, in the experiment on C. jejuni Au-39, in the experiment with C. jejuni Au-44 and with C. jejuni Au-47 was 0.62 µg/mL (≈ 2.11 µM) each time.
For the compound `CSc1ccccc1-c1nnc(NC(=O)Cc2ccccc2)o1` [T7], the “reduction in C. jejuni population per gram of cecal contents compared with the DMSO-treated group” value in experiment [1] is 0.9 log. Moreover, the minimal inhibitory concentration (MIC) in the experiment with C. coli ATCC33559 came out at 0.16 µg/mL (≈ 0.492 µM); in the experiment with C. jejuni Au-38, 0.16 µg/mL (≈ 0.492 µM); in the experiment on C. jejuni Au-20, 0.16 µg/mL (≈ 0.492 µM); in the experiment on C. jejuni Au-45, 0.16 µg/mL (≈ 0.492 µM); in the experiment with C. jejuni Au-50, 0.08 µg/mL (≈ 0.246 µM); with C. jejuni Au-32, 0.08 µg/mL (≈ 0.246 µM). For the same compound, the MIC in the experiment on C. jejuni Au-13, with C. jejuni Au-39, in the experiment with C. jejuni Au-44 and with C. jejuni Au-47 was 0.31 µg/mL (≈ 0.953 µM) throughout. Also, the minimum bactericidal concentration (MBC) with C. coli ATCC33559 came out at 0.32 µg/mL (≈ 0.983 µM); with C. jejuni Au-38, 0.32 µg/mL (≈ 0.983 µM); in the experiment on C. jejuni Au-20 it was 0.32 µg/mL (≈ 0.983 µM); with C. jejuni Au-45 it was 0.32 µg/mL (≈ 0.983 µM); with C. jejuni Au-50, 0.32 µg/mL (≈ 0.983 µM); with C. jejuni Au-32, 0.16 µg/mL (≈ 0.492 µM). Besides, the MBC with C. jejuni Au-13 stood at 0.62 µg/mL (≈ 1.91 µM); in the experiment on C. jejuni Au-39, 0.62 µg/mL (≈ 1.91 µM); with C. jejuni Au-44, 1.24 µg/mL (≈ 3.81 µM); in the experiment with C. jejuni Au-47, 0.62 µg/mL (≈ 1.91 µM).
For `CCN(CC)/C(C)=N/C(=O)Nc1ccccc1` [T8], the MIC was 0.25 µg/mL (≈ 1.07 µM) with C. coli ATCC33559; 0.06 µg/mL (≈ 0.257 µM) in the experiment with C. jejuni Au-38; 0.25 µg/mL (≈ 1.07 µM) in the experiment with C. jejuni Au-20; 0.25 µg/mL (≈ 1.07 µM) in the experiment on C. jejuni Au-45; 0.25 µg/mL (≈ 1.07 µM) with C. jejuni Au-50; 0.25 µg/mL (≈ 1.07 µM) in the experiment on C. jejuni Au-32. For the same compound, the minimum inhibitory concentration (MIC) in the experiment on C. jejuni Au-13 came to 0.06 µg/mL (≈ 0.257 µM); in the experiment with C. jejuni Au-39 it was 0.25 µg/mL (≈ 1.07 µM); in the experiment on C. jejuni Au-44 it was 0.06 µg/mL (≈ 0.257 µM); in the experiment on C. jejuni Au-47, 0.06 µg/mL (≈ 0.257 µM). The MBC was found to be 0.25 µg/mL (≈ 1.07 µM) in the experiment on C. coli ATCC33559; 0.06 µg/mL (≈ 0.257 µM) in the experiment on C. jejuni Au-38; 0.25 µg/mL (≈ 1.07 µM) in the experiment with C. jejuni Au-20; 0.25 µg/mL (≈ 1.07 µM) with C. jejuni Au-45; 0.5 µg/mL (≈ 2.14 µM) with C. jejuni Au-50; 0.25 µg/mL (≈ 1.07 µM) in the experiment on C. jejuni Au-32. For the same compound, the MBC in the experiment on C. jejuni Au-13 came out at 0.06 µg/mL (≈ 0.257 µM); in the experiment on C. jejuni Au-39, 0.25 µg/mL (≈ 1.07 µM); in the experiment with C. jejuni Au-44 it was 0.12 µg/mL (≈ 0.514 µM); in the experiment on C. jejuni Au-47, 0.06 µg/mL (≈ 0.257 µM).
